Reference: patent US20110142882A1 (priority 2009, published 2011)

System: small (about 50 μm-about 90 μm) arterioles of the cremaster muscle
Parameters: species or system male Sprague-Dawley rats
Conditions: rat, in vivo

CC[N+](CC)(CC)CCOc1cccc(OCC[N+](CC)(CC)CC)c1OCC[N+](CC)(CC)CC [gallamine triethiodide]
effect on microvessel diameter: Significant vasoconstriction | vasodilation over time (time-dependent effects control): No vasodilation
